Laboratory results published in the NIST ThermoML archive (doi:10.1016/j.jct.2004.12.014).

Key:
[1] = 318.15 K; 101.33 kPa; Liquid
[2] = refractive index (Na D-line) (dimensionless); conditions: 318.15 K; 101.33 kPa; Liquid; Standard Abbe refractometry
[3] = xn = mol fraction of the nth substance listed; conditions: 318.15 K, 101 kPa, Liquid
[4] = excess molar enthalpy (molar enthalpy of mixing); xn = mol fraction of the nth substance listed; conditions: 318.15 K, 101 kPa, Liquid

CCCCOC(=O)CC [butyl propanoate]
Conditions | mass density [kg/m3] | refractive index
[1] | 851.33 | –
[2] | – | 1.3895

CCCCCOC(=O)CC [pentyl propanoate] + CCCCCCCCC
Conditions | excess molar enthalpy [kcal/mol] | excess molar volume [m3/mol]
[3], x1 = 0.0661 | – | 1.34e-07
[3], x1 = 0.1312 | – | 2.47e-07
[3], x1 = 0.1902 | – | 3.19e-07
[3], x1 = 0.2517 | – | 3.88e-07
[3], x1 = 0.3122 | – | 4.31e-07
[3], x1 = 0.3722 | – | 4.6e-07
[3], x1 = 0.4344 | – | 4.77e-07
[3], x1 = 0.4911 | – | 4.73e-07
[3], x1 = 0.5498 | – | 4.62e-07
[3], x1 = 0.6072 | – | 4.37e-07
[3], x1 = 0.6646 | – | 3.9e-07
[3], x1 = 0.7225 | – | 3.49e-07
[3], x1 = 0.778 | – | 2.91e-07
[3], x1 = 0.8335 | – | 2.41e-07
[3], x1 = 0.8887 | – | 1.69e-07
[3], x1 = 0.9434 | – | 1.01e-07
[4], x1 = 0.0584 | 0.0448 | –
[4], x1 = 0.1266 | 0.0882 | –
[4], x1 = 0.1948 | 0.124 | –
[4], x1 = 0.2641 | 0.151 | –
[4], x1 = 0.329 | 0.168 | –
[4], x1 = 0.3907 | 0.178 | –
[4], x1 = 0.4467 | 0.183 | –
[4], x1 = 0.4973 | 0.184 | –
[4], x1 = 0.5431 | 0.181 | –
[4], x1 = 0.576 | 0.176 | –
[4], x1 = 0.5969 | 0.173 | –
[4], x1 = 0.6505 | 0.161 | –
[4], x1 = 0.7085 | 0.145 | –
[4], x1 = 0.7683 | 0.124 | –
[4], x1 = 0.8297 | 0.0982 | –
[4], x1 = 0.8907 | 0.067 | –
[4], x1 = 0.9492 | 0.0339 | –

CCCCCCCCCCC [undecane] + CCOC(=O)CC
Conditions | excess molar enthalpy [kcal/mol] | excess molar volume [m3/mol]
[3], x2 = 0.0488 | – | 2.1e-07
[3], x2 = 0.1093 | – | 4.32e-07
[3], x2 = 0.1996 | – | 6.94e-07
[3], x2 = 0.2885 | – | 9.21e-07
[3], x2 = 0.3652 | – | 1.049e-06
[3], x2 = 0.4355 | – | 1.121e-06
[3], x2 = 0.5015 | – | 1.154e-06
[3], x2 = 0.5629 | – | 1.147e-06
[3], x2 = 0.621 | – | 1.119e-06
[3], x2 = 0.6752 | – | 1.071e-06
[3], x2 = 0.7242 | – | 9.82e-07
[3], x2 = 0.7714 | – | 8.93e-07
[3], x2 = 0.816 | – | 7.79e-07
[3], x2 = 0.8558 | – | 6.55e-07
[3], x2 = 0.895 | – | 5.1e-07
[3], x2 = 0.9301 | – | 3.49e-07
[3], x2 = 0.9671 | – | 2.01e-07
[4], x2 = 0.0755 | 0.0914 | –
[4], x2 = 0.1612 | 0.168 | –
[4], x2 = 0.2482 | 0.238 | –
[4], x2 = 0.3331 | 0.29 | –
[4], x2 = 0.4028 | 0.32 | –
[4], x2 = 0.4629 | 0.336 | –
[4], x2 = 0.5094 | 0.341 | –
[4], x2 = 0.5483 | 0.34 | –
[4], x2 = 0.5806 | 0.336 | –
[4], x2 = 0.6255 | 0.325 | –
[4], x2 = 0.6622 | 0.311 | –
[4], x2 = 0.7018 | 0.292 | –
[4], x2 = 0.7511 | 0.261 | –
[4], x2 = 0.7996 | 0.225 | –
[4], x2 = 0.8514 | 0.177 | –
[4], x2 = 0.9026 | 0.125 | –
[4], x2 = 0.9521 | 0.0667 | –

CCCCCCCCCCCCC [tridecane] + CCC(=O)OC
Conditions | excess molar enthalpy [kcal/mol] | excess molar volume [m3/mol]
[3], x2 = 0.0687 | – | 3.33e-07
[3], x2 = 0.1431 | – | 6.43e-07
[3], x2 = 0.2538 | – | 1.057e-06
[3], x2 = 0.3537 | – | 1.323e-06
[3], x2 = 0.4366 | – | 1.462e-06
[3], x2 = 0.5144 | – | 1.543e-06
[3], x2 = 0.5811 | – | 1.548e-06
[3], x2 = 0.6387 | – | 1.514e-06
[3], x2 = 0.6932 | – | 1.429e-06
[3], x2 = 0.7403 | – | 1.32e-06
[3], x2 = 0.7836 | – | 1.217e-06
[3], x2 = 0.8229 | – | 1.075e-06
[3], x2 = 0.8583 | – | 9.26e-07
[3], x2 = 0.8914 | – | 7.83e-07
[3], x2 = 0.9212 | – | 6.29e-07
[3], x2 = 0.9596 | – | 4.05e-07
[3], x2 = 0.9748 | – | 2.5e-07
[4], x2 = 0.1102 | 0.152 | –
[4], x2 = 0.2079 | 0.264 | –
[4], x2 = 0.298 | 0.349 | –
[4], x2 = 0.3751 | 0.407 | –
[4], x2 = 0.4404 | 0.44 | –
[4], x2 = 0.4912 | 0.457 | –
[4], x2 = 0.5388 | 0.465 | –
[4], x2 = 0.5843 | 0.466 | –
[4], x2 = 0.624 | 0.459 | –
[4], x2 = 0.6309 | 0.456 | –
[4], x2 = 0.6687 | 0.44 | –
[4], x2 = 0.7093 | 0.414 | –
[4], x2 = 0.7493 | 0.382 | –
[4], x2 = 0.7925 | 0.336 | –
[4], x2 = 0.8368 | 0.283 | –
[4], x2 = 0.8813 | 0.224 | –
[4], x2 = 0.9269 | 0.152 | –
[4], x2 = 0.9664 | 0.0759 | –
